The numbers were not newly measured in patent publication US20170335399A1, “DETECTION OF MINERALOCORTICOID RECEPTOR ACTIVATION AND PERSONALIZED ANTIHYPERTENSIVE THERAPY BASED THEREON” (The Regents of University of Michigan, priority 2014, published 2017), which cites them from elsewhere.

Series [1] addresses T1, mineralocorticoid receptor (MR) (Homo sapiens, UniProt P08235).
T1 construct: host or cells: patients with resistant hypertension (in vivo)
T1 sequence (P08235 1-984): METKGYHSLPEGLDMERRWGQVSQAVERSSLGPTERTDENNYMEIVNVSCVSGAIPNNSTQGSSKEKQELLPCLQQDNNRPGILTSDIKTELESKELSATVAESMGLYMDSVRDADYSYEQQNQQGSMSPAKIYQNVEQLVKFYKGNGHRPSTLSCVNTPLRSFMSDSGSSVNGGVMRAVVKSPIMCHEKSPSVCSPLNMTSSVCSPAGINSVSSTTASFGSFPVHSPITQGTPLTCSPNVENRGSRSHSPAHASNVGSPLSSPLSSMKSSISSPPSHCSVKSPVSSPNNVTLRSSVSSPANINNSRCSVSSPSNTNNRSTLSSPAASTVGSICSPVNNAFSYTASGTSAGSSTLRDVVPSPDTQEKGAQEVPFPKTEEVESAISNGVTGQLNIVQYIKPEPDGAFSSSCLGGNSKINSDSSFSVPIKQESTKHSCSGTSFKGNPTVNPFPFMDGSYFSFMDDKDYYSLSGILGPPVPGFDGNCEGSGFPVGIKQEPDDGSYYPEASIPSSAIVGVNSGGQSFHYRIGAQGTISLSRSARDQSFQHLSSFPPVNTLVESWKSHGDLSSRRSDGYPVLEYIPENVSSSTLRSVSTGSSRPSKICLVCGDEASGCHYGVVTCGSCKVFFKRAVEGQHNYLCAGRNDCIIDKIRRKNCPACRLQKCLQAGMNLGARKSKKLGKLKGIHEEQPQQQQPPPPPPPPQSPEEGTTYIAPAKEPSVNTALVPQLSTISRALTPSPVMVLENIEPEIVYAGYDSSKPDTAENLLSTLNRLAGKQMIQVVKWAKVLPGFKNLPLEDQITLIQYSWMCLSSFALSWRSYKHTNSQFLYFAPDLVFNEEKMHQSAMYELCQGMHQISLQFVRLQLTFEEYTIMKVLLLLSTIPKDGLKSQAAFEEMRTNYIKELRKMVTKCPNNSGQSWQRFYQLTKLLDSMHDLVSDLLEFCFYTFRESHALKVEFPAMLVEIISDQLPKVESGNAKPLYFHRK
Particulars: resistant hypertension patients; ASPIRANT trial; placebo-corrected mean.

In series [2] the target is T1, mineralocorticoid receptor (MR). To be noted: resistant hypertension; after addition of spironolactone; other studies.
For series [3], the system named is ENaC. To be noted: patients treated with spironolactone.

For the molecule `CC(=O)S[C@@H]1CC2=CC(=O)CC[C@]2(C)[C@H]2CC[C@@]3(C)[C@@H](CC[C@@]34CCC(=O)O4)[C@H]12` [spironolactone], in series [1], the “mean reduction of 24-hour systolic blood pressure more than placebo” value is 9.8 mm Hg. Moreover, in series [2], the “mean reductions in systolic blood pressure” value is 16-26 mm Hg. Besides, in series [3], the “ENaC expression on peripheral blood mononuclear cells” value was “decreased”.
